From US20240033234A1, “THERAPEUTIC COMPOUNDS, FORMULATIONS, AND USE THEREOF” (Tvardi Therapeutics, Inc., priority 2022, published 2024)
Where “and” joins values, the source holds several entries; their conditions need not be identical. Equal entries are not always repeated.

Assay: Accelerated and long term stability study of TTI-101 (Batch A, Batch B): HPLC assay, purity, impurities and water content after storage at 5° C., 25° C./60% RH, 30° C./65% RH or 40° C./75% RH
Type: physicochemical
Conditions: for Impurities RRT 1.06: RRT of Compound 4; for Impurities RRT 0.99: RRT of compound of formula (IV)
Description: Exemplary HPLC conditions: diluent was 0.1% trifluoroacetic acid (TFA) in acetonitrile, Mobile Phase A was 0.05% TFA in water, and Mobile Phase B was 0.05% TFA in acetonitrile, column (Agilent, Eclipse XDB-C18, 3.0×100 mm, particle size 1.8 μm), flow (0.425 mL/min), and detector (280 nm diode array).
Batch A was prepared analogously using Method 3 as described in Example 1. Batch B was prepared according to Method 5 as described in Example 1.
Samples of TTI-101 were stored at 5° C., 25° C./60% RH, 30° C./65% RH, or 40° C./75% RH. TTI-101 was stored in an LDPE bag enclosed with a Nylon cable tie and then transferred to another LDPE bag and enclosed with a Nylon cable tie. The enclosure was put into an HDPE bottle and closed with a polyethylene-lined polypropylene cap. The samples were stored under the above-identified conditions.
The samples were analyzed using HPLC with the exemplary conditions identified above. Relative retention time (RRT) for Compound 5 was about 0.83, Compound 4 was about 1.05-1.06, Compound 6 was about 1.15-1.17, and compound of formula (IV) was about 0.99.
• NA not applicable • NQ ≥0.02% and <0.05% • Avg average • Cmpd compound • — no peak • M month • RRT relative retention time

[1] = 25° C./60% RH, 6 M, P1/P2, listed as Batch A
[2] = 25° C./60% RH, 9 M, P1/P2, listed as Batch A
[3] = 25° C./60% RH, 12 M, P1/P2, listed as Batch A
[4] = 40° C./75% RH, 0 M, P1/P2, listed as Batch A
[5] = 40° C./75% RH, 2 M, P1/P2, listed as Batch A
[6] = 40° C./75% RH, 6 M, P1/P2, listed as Batch A

Structure (SMILES): COc1ccc(S(=O)(=O)Nc2cc(-c3c(O)ccc4ccccc34)c(O)c3ccccc23)cc1 [TTI-101]
- Purity (%) (25° C./60% RH, 3 M, P1/P2): 99.7%
- Water Content (%) (25° C./60% RH, 3 M, P1/P2): <0.04%
- Assay (%) (25° C./60% RH, 3 M, P1/P2, listed as Batch A): 99.0% and 100.0%
- Assay (%) (25° C./60% RH, 6 M, Avg): 98.2%
- Impurities RRT 1.15 (Cmpd 6) (25° C./60% RH, 6 M, Avg): 0.11 area %
- Impurities Total (25° C./60% RH, 6 M, Avg): 0.1 area %
- Purity (%) (25° C./60% RH, 6 M, Avg): 99.9%
- Water Content (%) (25° C./60% RH, 6 M, Avg): <0.04%
- Impurities Total (25° C./60% RH, 6 M, P1/P2): 0.1 area %
- Purity (%) (25° C./60% RH, 6 M, P1/P2): 99.9%
- Water Content (%) (25° C./60% RH, 6 M, P1/P2): <0.04%
- Assay (%) [1]: 97.0% and 99.5%
- Impurities RRT 1.15 (Cmpd 6) [1]: 0.11 area % and 0.12 area %
- Assay (%) (25° C./60% RH, 9 M, Avg): 98.4%
- Impurities RRT 1.16 (Cmpd 6) (25° C./60% RH, 9 M, Avg): 0.10 area %
- Impurities Total (25° C./60% RH, 9 M, Avg): 0.1 area %
- Purity (%) (25° C./60% RH, 9 M, Avg): 99.9%
- Water Content (%) (25° C./60% RH, 9 M, Avg): <0.04%
- Impurities Total (25° C./60% RH, 9 M, P1/P2): 0.1 area %
- Purity (%) (25° C./60% RH, 9 M, P1/P2): 99.9%
- Water Content (%) (25° C./60% RH, 9 M, P1/P2): <0.04%
- Assay (%) [2]: 99.7% and 97.0%
- Impurities RRT 1.16 (Cmpd 6) [2]: 0.11 area % and 0.10 area %
- Assay (%) (25° C./60% RH, 12 M, Avg): 98.5%
- Impurities RRT 1.06 (Cmpd 4) (25° C./60% RH, 12 M, Avg): NQ (≥0.02% and <0.05%)
- Impurities RRT 1.16 (Cmpd 6) (25° C./60% RH, 12 M, Avg): 0.39 area %
- Impurities RRT 1.52 (25° C./60% RH, 12 M, Avg): NQ (≥0.02% and <0.05%)
- Impurities Total (25° C./60% RH, 12 M, Avg): 0.4 area %
- Purity (%) (25° C./60% RH, 12 M, Avg): 99.6%
- Water Content (%) (25° C./60% RH, 12 M, Avg): 0.04%
- Impurities RRT 1.06 (Cmpd 4) (25° C./60% RH, 12 M, P1/P2): NQ (≥0.02% and <0.05%)
- Impurities RRT 1.16 (Cmpd 6) (25° C./60% RH, 12 M, P1/P2): 0.39 area %
- Impurities Total (25° C./60% RH, 12 M, P1/P2): 0.4 area %
- Purity (%) (25° C./60% RH, 12 M, P1/P2): 99.6%
- Assay (%) [3]: 98.3% and 98.6%
- Water Content (%) [3]: <0.04% and 0.04%
- Assay (%) (25° C./60% RH, 18 M, Avg): 98.2%
- Impurities RRT 1.15 (Cmpd 6) (25° C./60% RH, 18 M, Avg): 0.10 area %
- Impurities Total (25° C./60% RH, 18 M, Avg): 0.1 area %
- Purity (%) (25° C./60% RH, 18 M, Avg): 99.9%
- Water Content (%) (25° C./60% RH, 18 M, Avg): <0.04%
- Impurities RRT 1.15 (Cmpd 6) (25° C./60% RH, 18 M, P1/P2): 0.10 area %
- Impurities Total (25° C./60% RH, 18 M, P1/P2): 0.1 area %
- Purity (%) (25° C./60% RH, 18 M, P1/P2): 99.9%
- Water Content (%) (25° C./60% RH, 18 M, P1/P2): <0.04%
- Impurities RRT 1.06 (25° C./60% RH, 18 M, P1/P2): NQ (≥0.02% and <0.05%)
- Assay (%) (25° C./60% RH, 18 M, P1/P2, listed as Batch A): 98.3% and 98.2%
- Assay (%) (25° C./60% RH, 24 M, Avg): 99.3%
- Impurities RRT 1.16 (Cmpd 6) (25° C./60% RH, 24 M, Avg): 0.12 area %
- Impurities Total (25° C./60% RH, 24 M, Avg): 0.1 area %
- Purity (%) (25° C./60% RH, 24 M, Avg): 99.9%
- Water Content (%) (25° C./60% RH, 24 M, Avg): <0.04%
- Impurities RRT 1.16 (Cmpd 6) (25° C./60% RH, 24 M, P1/P2): 0.12 area %
- Impurities Total (25° C./60% RH, 24 M, P1/P2): 0.1 area %
- Purity (%) (25° C./60% RH, 24 M, P1/P2): 99.9%
- Water Content (%) (25° C./60% RH, 24 M, P1/P2): <0.04%
- Impurities RRT 1.06 (25° C./60% RH, 24 M, P1/P2): NQ (≥0.02% and <0.05%)
- Assay (%) (25° C./60% RH, 24 M, P1/P2, listed as Batch A): 99.1% and 99.6%
- Assay (%) (40° C./75% RH, 0 M, Avg): 99.8%
- Impurities RRT 1.06 (Cmpd 4) (40° C./75% RH, 0 M, Avg): NQ (≥0.02% and <0.05%)
- Impurities RRT 1.17 (Cmpd 6) (40° C./75% RH, 0 M, Avg): 0.13 area %
- Impurities RRT 1.32 (40° C./75% RH, 0 M, Avg): NQ (≥0.02% and <0.05%)
- Impurities Total (40° C./75% RH, 0 M, Avg): 0.1 area %
- Purity (%) (40° C./75% RH, 0 M, Avg): 99.8%
- Water Content (%) (40° C./75% RH, 0 M, Avg): <0.04%
- Impurities RRT 0.99 (40° C./75% RH, 0 M, Avg): NQ (≥0.02% and <0.05%)
- Impurities RRT 1.32 (40° C./75% RH, 0 M, P1/P2): NQ (≥0.02% and <0.05%)
- Impurities Total (40° C./75% RH, 0 M, P1/P2): 0.1 area %
- Purity (%) (40° C./75% RH, 0 M, P1/P2): 99.8%
- Water Content (%) (40° C./75% RH, 0 M, P1/P2): <0.04%
- Assay (%) [4]: 99.9% and 99.7%
- Impurities RRT 1.17 (Cmpd 6) [4]: 0.13 area % and 0.12 area %
- Assay (%) (40° C./75% RH, 2 M, Avg): 99.9%
- Impurities RRT 1.16 (Cmpd 6) (40° C./75% RH, 2 M, Avg): 0.07 area %
- Impurities RRT 1.29 (40° C./75% RH, 2 M, Avg): NQ (≥0.02% and <0.05%)
- Impurities RRT 1.38 (40° C./75% RH, 2 M, Avg): NQ (≥0.02% and <0.05%)
- Impurities Total (40° C./75% RH, 2 M, Avg): 0.1 area %
- Purity (%) (40° C./75% RH, 2 M, Avg): 99.9%
- Water Content (%) (40° C./75% RH, 2 M, Avg): <0.04%
- Impurities RRT 0.99 (40° C./75% RH, 2 M, Avg): NQ (≥0.02% and <0.05%)
- Impurities RRT 1.38 (40° C./75% RH, 2 M, P1/P2): NQ (≥0.02% and <0.05%)
- Impurities Total (40° C./75% RH, 2 M, P1/P2): 0.1 area %
- Purity (%) (40° C./75% RH, 2 M, P1/P2): 99.9%
- Water Content (%) (40° C./75% RH, 2 M, P1/P2): <0.04%
- Impurities RRT 0.99 (40° C./75% RH, 2 M, P1/P2): NQ (≥0.02% and <0.05%)
- Assay (%) [5]: 100.0% and 99.8%
- Impurities RRT 1.16 (Cmpd 6) [5]: 0.08 area % and 0.06 area %
- Assay (%) (40° C./75% RH, 3 M, Avg): 99.0%
- Impurities RRT 0.36 (40° C./75% RH, 3 M, Avg): NQ (≥0.02% and <0.05%)
- Impurities RRT 1.06 (Cmpd 4) (40° C./75% RH, 3 M, Avg): 0.07 area %
- Impurities RRT 1.16 (Cmpd 6) (40° C./75% RH, 3 M, Avg): 0.21 area %
- Impurities Total (40° C./75% RH, 3 M, Avg): 0.3 area %
- Purity (%) (40° C./75% RH, 3 M, Avg): 99.7%
- Water Content (%) (40° C./75% RH, 3 M, Avg): <0.04%
- Impurities RRT 1.06 (Cmpd 4) (40° C./75% RH, 3 M, P1/P2): 0.07 area %
- Impurities RRT 1.16 (Cmpd 6) (40° C./75% RH, 3 M, P1/P2): 0.21 area %
- Impurities Total (40° C./75% RH, 3 M, P1/P2): 0.3 area %
- Purity (%) (40° C./75% RH, 3 M, P1/P2): 99.7%
- Water Content (%) (40° C./75% RH, 3 M, P1/P2): <0.04%
- Assay (%) (40° C./75% RH, 3 M, P1/P2, listed as Batch A): 100.8% and 97.2%
- Impurities RRT 1.15 (Cmpd 6) (40° C./75% RH, 6 M, Avg): 0.13 area %
- Impurities Total (40° C./75% RH, 6 M, Avg): 0.1 area %
- Purity (%) (40° C./75% RH, 6 M, Avg): 99.9%
- Water Content (%) (40° C./75% RH, 6 M, Avg): <0.04%
- Impurities Total (40° C./75% RH, 6 M, P1/P2): 0.1 area %
- Purity (%) (40° C./75% RH, 6 M, P1/P2): 99.9%
- Water Content (%) (40° C./75% RH, 6 M, P1/P2): <0.04%
- Assay (%) [6]: 98.5% and 95.9%
- Impurities RRT 1.15 (Cmpd 6) [6]: 0.13 area % and 0.12 area %
- Assay (%) (40° C./75% RH, 8 M, Avg): 100.3%
- Impurities RRT 1.16 (Cmpd 6) (40° C./75% RH, 8 M, Avg): 0.08 area %
- Impurities Total (40° C./75% RH, 8 M, Avg): 0.1 area %
- Purity (%) (40° C./75% RH, 8 M, Avg): 99.9%
- Water Content (%) (40° C./75% RH, 8 M, Avg): 0.04%
- Impurities Total (40° C./75% RH, 8 M, P1-P6): 0.1 area %
- Purity (%) (40° C./75% RH, 8 M, P1-P6): 99.9%
- Assay (%) (40° C./75% RH, 8 M, P1-P6, listed as Batch A): 100.0% and 99.8% and 100.3% and 100.6% and 99.9% and 100.8%
- Impurities Total (Storage 5° C., 0 M, Avg): 0.1 area %
- Impurity RRT 0.61 (Storage 5° C., 0 M, Avg): 0.05 area %
- Impurity RRT 0.86 (Storage 5° C., 0 M, Avg): NQ (≥0.02% and <0.05%)
- Impurity RRT 0.88 (Storage 5° C., 0 M, Avg): NQ (≥0.02% and <0.05%)
- Impurity RRT 0.99 (Storage 5° C., 0 M, Avg): NQ (≥0.02% and <0.05%)
- Impurity RRT 1.16 (Cmp 6) (Storage 5° C., 0 M, Avg): 0.07 area %
- Purity (Storage 5° C., 0 M, Avg): 99.8%
